Measured values: ChEMBL document CHEMBL4002618, “Anticomplement triterpenoids from the roots of Ilex asprella” (2017)
The source made the active and inactive calls. The calls are words filed in the database; no cut-off is given here.

Key:
Erythrocyte [1] = test: Anticomplement activity in sheep erythrocytes assessed as concentration required for 50% hemolytic inhibition by classic pathway preincubated for 10 mins with guinea pig serum followed by erythrocyte addition measured after 30 mins by spectrophotometer; assay type: functional, Ovis aries
Erythrocyte [2] = test: Anticomplement activity in New Zealand White rabbit erythrocytes assessed as concentration required for 50% hemolytic inhibition by alternative pathway preincubated for 10 mins with normal human serum followed by erythrocyte addition measured after 30 mins by spectrophotometer; assay type: functional, Oryctolagus cuniculus
Erythrocyte [3] = test: Anticomplement activity in sheep erythrocytes assessed as inhibition of hemolysis by classical pathway after 30 mins of compound treatment in normal human serum with C1q-depleted sera; assay type: functional, cell-based; details: Ovis aries
Erythrocyte [4] = test: Anticomplement activity in sheep erythrocytes assessed as inhibition of hemolysis by classical pathway after 30 mins of compound treatment in normal human serum with C2-depleted sera; assay type: functional, cell-based; details: Ovis aries
Erythrocyte [5] = test: Anticomplement activity in sheep erythrocytes assessed as inhibition of hemolysis by classical pathway after 30 mins of compound treatment in normal human serum with C5-depleted sera; assay type: functional, cell-based; details: Ovis aries
Erythrocyte [6] = test: Anticomplement activity in sheep erythrocytes assessed as inhibition of hemolysis by classical pathway after 30 mins of compound treatment in normal human serum with C3-depleted sera; assay type: functional, cell-based; details: Ovis aries
Erythrocyte [7] = test: Anticomplement activity in sheep erythrocytes assessed as inhibition of hemolysis by classical pathway after 30 mins of compound treatment in normal human serum with C4-depleted sera; assay type: functional, cell-based; details: Ovis aries
Erythrocyte [8] = test: Anticomplement activity in sheep erythrocytes assessed as inhibition of hemolysis by classical pathway after 30 mins of compound treatment in normal human serum with C9-depleted sera; assay type: functional, cell-based; details: Ovis aries

Compound	Activity (Erythrocyte [1]) [mg/mL]	Activity (Erythrocyte [2]) [mg/mL]	Activity (Erythrocyte [3])	Activity (Erythrocyte [4])	Activity (Erythrocyte [5])	Activity (Erythrocyte [6])	Activity (Erythrocyte [7])	Activity (Erythrocyte [8])
CC1(C)CC[C@]2(C(=O)O)CC[C@]3(COC(=O)/C=C/c4ccc(O)cc4)C(=CC[C@@H]4[C@@]5(C)CC[C@H](OC(=O)/C=C/c6ccc(O)cc6)C(C)(C)[C@@H]5CC[C@]43C)[C@@H]2C1	0.072	0.159	Active	inactive	Active	Active	Active	inactive
C=C1[C@@H](O)[C@H](O)C[C@]2(C)[C@H]3CC=C4[C@@H]5CC(C)(C)CC[C@]5(C(=O)O)CC[C@@]4(C)[C@]3(C)CC[C@@H]12	0.09	0.308	Active	Active				Active
